In US20230383291A1, “PEPTIDE-BASED TRANSDUCTION OF NON-ANIONIC POLYNUCLEOTIDE ANALOGS FOR GENE EXPRESSION MODULATION” (FELDAN BIO INC., priority 2020, published 2023):
Where a SMILES comes first, the peptide text is derived from it.

What was measured:
Assay type in all cases: cell-based, Human
HeLa cells [1] = test: PMO-FITC delivery in HeLa cells, immunofluorescence microscopy (vs Endoporter); details: 10 μM PMO-FITC with shuttle agent, 5-minute incubation in RPMI
Description: A PMO cargo delivery experiment in HeLa cells was performed to directly compare synthetic peptide shuttle agent-mediated PMO transduction with Endoporter-mediated intracellular PMO delivery. For shuttle agent-mediated transduction, HeLa cells were exposed to 10 μM of PMO-FITC in the presence of 2.5, 5, 7.5, or 10 μM of the second-generation shuttle agent FSD396 for 5 minutes in RPMI. For Endoporter-mediated delivery, HeLa cells were exposed to 10 μM of PMO-FITC in the presence of 2.5, 5, 7.5, or 10 μM of the commercially-available Endoporter' peptide (GeneTools, LLC) in growth medium for the manufacturer's recommended minimum incubation time of at least 24 hours. After a washing step, delivery results were compared by observing intracellular PMO-FITC fluorescence via immunofluorescence microscopy and results are shown in FIG. 11.

in vitro = details: human, RH-30 cells
Description: (§1) Although naked DNA/RNA cargoes are shown to themselves be poor cargoes of synthetic peptide shuttle agents (Examples 3 and 9), the present Example evaluates their potential dominant negative effect in trans on shuttle agent-mediated transduction of PMO cargoes. Briefly, RH-30 cells (150,000 cells/well in 24-well dish) were contacted with a delivery mix of 6 μM of a PMO-FITC and of 5 μM of the synthetic peptide shuttle agent FSD250 for 2 minutes in RPMI, in the presence of increasing amounts of a DNA oligonucleotide or an sgRNA spiked in medium. Cells were then washed, incubated in growth medium and then collected for analysis by flow cytometry after 1 h. […] In all conditions tested, cell viability remained above 75%.
(§2) The present Example compares the PMO transduction activity of a prototypical CPD-comprising first generation shuttle agent with that of two rationally-designed second generation synthetic peptide shuttle agents. Briefly, RH-30 cells (20,000 cells/well in 96-well dish) were contacted with a delivery mix of 6 μM of a PMO-FITC and increasing concentrations of the first-generation shuttle agent His-CM18-PTD4 or two CPD-lacking second generation synthetic peptide shuttle agents (FSD250 and FSD10) for 2 minutes in RPMI. Cells were washed, incubated in complete medium and then collected for analysis by flow cytometry after 1 h. […]

HeLa cells [2] = test: PMO, PNA and siRNA transduction in HeLa cells with FSD250; details: all conditions tested, FIG. 7B
Description: Phosphorodiamidate morpholino oligomers labeled with the fluorophore FITC (PMO-FITC) were prepared at 1 mM in sterile water. HeLa cells were plated (20 000 cells/well) in a 96 well-dish the day prior to the experiment. Each delivery mix comprising a synthetic peptide shuttle agent (7.5, 10 or 20 μM) and a PMO-FITC (6 μM) was prepared and completed to 50 μL with RPMI-1640 media. Cells were washed once with PBS and the shuttle agent/PMO-FITC or PMO-FITC alone added on cells for five minutes. Then, 100 μL DMEM containing 10% FBS was added to the mix and removed. Cells were washed once with PBS and incubated in DMEM containing 10% FBS. Cells were analyzed after a 2-hour incubation by flow cytometry.
HeLa cells were transduced with 10 μM of PMO-FITC or fluorescently-labeled Peptide Nucleic Acid (PNA) (PNA TelC-Alexa 488; cat. no. F1004; PNA BIO Inc.) as generally described in the transduction protocol described in Example 1 with a few modifications. The shuttle peptide used was FSD250 (5 μM) and cells were contacted with the cargo and shuttle agent for two minutes, and cells were analyzed after a 1-hour incubation by flow cytometry.

HeLa cells [3] = test: Propidium iodide (PI) transduction screening in HeLa cells; details: negative control peptide tested in parallel; data not shown
Description: HeLa cells were plated (20 000 cells/well) in a 96 well-dish the day prior to the experiment. Each delivery mix comprising a synthetic peptide shuttle agent (10 μM) and the propidium iodide (PI) (10 μg/mL) or the GFP-NLS (10 μM) were prepared and completed to 50 μL with phosphate-buffered saline (PBS) for PI or with RPMI-1640 medium for GFP-NLS. Cells were washed once and the shuttle agent/PI or shuttle agent/GFP-NLS added on cells for one minute (PI) or 5 minutes (GFP-NLS). Then 100 μL DMEM containing 10% FBS was added to the mix and removed. Cells were washed once with PBS and incubated in DMEM containing 10% FBS. Cells were analyzed after 2-hour incubation by flow cytometry. Cells were analyzed […]. […]
Due to the large number of peptides screened, negative controls were performed in parallel for each experimental batch and included a “no treatment” (NT) control in which the cells were not exposed to shuttle peptide or cargo, as well as a “cargo alone” control in which cells were exposed to the cargo in the absence of shuttle agent. […] Mean PI or GFP-NLS delivery score was calculated by multiplying the mean fluorescence intensity (of at least duplicate samples) measured for the viable PI+ or GFP+ cells by the mean percentage of viable PI+ or GFP+ cells, divided by 100,000 for GFP delivery or by 10,000 for PI delivery. […]

RH-30 cells = test: in vitro; details: 6 μM PMO-FITC, increasing shuttle concentrations, 2 minutes
Description: as §1, §2

Gli1 protein = test: Gli1 knock-down in DU145 cells, Western blot; details: FITC+ cells vs FITC− cells; 6 μM PMO, 5 μM FSD250, 48 hours
Description: DU145 cells were trypsinized and plated (500 000 cells/well) in a 24 well-dish the day prior to the experiment. […] Cells were washed once with PBS and delivery mixes were added on cells for five minutes. Then, 2 mL of RPMI-1640 containing 10% FBS was added to the mix and removed. Untreated cells were incubated with RPMI-1640 only. Cells were incubated in fresh RPMI-1640 containing 10% FBS. Forty height hours later, medium was removed and cells were washed once with PBS prior to trypsinization. Cells were harvested, collected by centrifugation, washed, and resuspended with PBS. Then, PMO-FITC positive and PMO-FITC negative cells were sorted and collected by virtue of FACS (BD FACS Aria Fusion). FITC-positive and FITC-negative cell samples were collected by centrifugation and resuspended in 50 μL protein extraction RIPA buffer (150 mM NaCl, 1% Nonidet™ P-40, 0.1% SDS, 0.5% Sodium deoxycholate, 25 mM Tris). Total protein concentrations were measured with a BCA protein assay kit. For all conditions, 10 μg of proteins were prepared at a final volume of 40 μL with 4× Laemmeli and RIPA buffer. Protein samples were then heated at 90° C. and separated through an 8% SDS-PAGE gel. Proteins were then transferred over night (25 volts) onto a […] PVDF membrane. Membranes were blocked using a 5% bovine serum albumin, Tris Buffer Saline, 0.1% Tween® 20 solution (5% BSA/TBS-T) for an hour. After blocking, the membrane was incubated for an hour with a 5% BSA/TBS-T solution containing anti alpha-Actinin (D6F6) primary antibody at a 1:1000. Alpha-Actinin protein present in the cell lysates served as loading control. Subsequently, the membranes were incubated over night with a 5% BSA/TBS-T solution containing anti-Gli1 primary antibody diluted 1:500. The membrane was then subjected to a 1-hour incubation at 1:5000 dilution of HRP-conjugated goat anti-rabbit secondary antibody 5% BSA/TBS-T solution. Chemiluminescence detection was performed using Clarity™ Western ECL Substrate and a ChemiDoc™ XRS apparatus. Gli1 and Alpha-Actinin densitometry was assessed using ImageJ™ software. […]

FSD396: second-generation shuttle agent (KLKLAKLLLKALKKLGGSGGGSQAKAQAKQAK; FSD396)
intracellular delivery of PMO-FITC (HeLa cells [1]): robust intracellular delivery

CC(C)C[C@H](NC(=O)[C@H](CCCCN)NC(=O)[C@H](CC(C)C)NC(=O)[C@H](CC(C)C)NC(=O)[C@H](CCCNC(=N)N)NC(=O)[C@H](CO)NC(=O)[C@H](Cc1c[nH]c2ccccc12)NC(=O)[C@H](CC(C)C)NC(=O)[C@H](CCCCN)NC(=O)[C@H](CC(C)C)NC(=O)[C@H](CC(C)C)NC(=O)[C@H](CCCCN)NC(=O)[C@H](Cc1c[nH]c2ccccc12)NC(=O)[C@@H](N)CCCCN)C(=O)N[C@@H](Cc1c[nH]c2ccccc12)C(=O)NCC(=O)NCC(=O)N[C@@H](CO)C(=O)NCC(=O)NCC(=O)NCC(=O)N[C@@H](CO)C(=O)N[C@@H](C)C(=O)N[C@@H](CCCNC(=N)N)C(=O)N[C@@H](C)C(=O)N[C@@H](C)C(=O)N[C@@H](CCCNC(=N)N)C(=O)N[C@@H](CCC(N)=O)C(=O)N[C@@H](C)C(=O)N[C@@H](CCCNC(=N)N)C(=O)O [FSD250] (H-KWKLLKLWSRLLKLWGGSGGGSARAARQAR-OH)
viability at 2 min, 5 µM (in vitro): > 75%
Cell viability (HeLa cells [2]): remained high

FSD174 Scramble: negative control peptide known to have low or no GFP transduction activity (LGRSGRIKIGGWSALASRARQARGLKIWTQGRL; FSD174 Scramble)
PI transduction efficiency compared to cargo alone (HeLa cells [3]): lower transduction efficiencies for PI

FSD10: CPD-lacking second generation synthetic peptide shuttle agent (KWKLARAFARAIKKLGGSGGGSYARALRRQARTG; FSD10)
PMO-FITC transduction efficiency compared to His-CM18-PTD4 (RH-30 cells): higher transduction efficiencies

PMO-Wnt1: antisense PMO molecule designed to knock-down expression of the Wnt1 protein (antisense GCAACAGCGCCCAGAGCCCCATG; all phosphorodiamidate morpholino (PMO))
Gli1 protein expression (Gli1 protein): knocked-down
